The subject of assay [1] is Streptomyces. In words: Growth inhibition in Streptomyces 85E at 5 ug/disk by hyphae formation inhibition assay. Format: functional, organism-based.
Assay [2] concerns Streptomyces. Description: Growth inhibition in Streptomyces 85E assessed as clear zone of inhibition at 20 ug/disk by hyphae formation inhibition assay. Format: functional. Particulars: read-out: IZ.
Assay [3] has as its system Streptomyces. Description: Growth inhibition in Streptomyces 85E at 2.5 ug/disk by hyphae formation inhibition assay. It is filed as functional, organism-based.
Assay [4] concerns Streptomyces. Description: Growth inhibition in Streptomyces 85E at 10 ug/disk by hyphae formation inhibition assay. Format: functional, organism-based.
The test system of assay [5] is Streptomyces. Description: Growth inhibition in Streptomyces 85E assessed as clear zone of inhibition at 10 ug/disk by hyphae formation inhibition assay. It is filed as functional. Particulars: read-out: IZ.
In assay [6] the test system is Streptomyces. Description: Growth inhibition in Streptomyces 85E assessed as bald phenotype around disk at 5 ug/disk by hyphae formation inhibition assay. It is filed as functional. Particulars: read-out: IZ.
For assay [7], the system named is Streptomyces. In words: Growth inhibition in Streptomyces 85E assessed as clear zone of inhibition at 5 ug/disk by hyphae formation inhibition assay. It is filed as functional. Particulars: read-out: IZ.
Assay [8] concerns Streptomyces. Description: Growth inhibition in Streptomyces 85E assessed as bald phenotype around disk at 2.5 ug/disk by hyphae formation inhibition assay. It is filed as functional. Particulars: read-out: IZ.
In assay [9] the test system is Streptomyces. In words: Growth inhibition in Streptomyces 85E at 20 ug/disk by hyphae formation inhibition assay. It is filed as functional, organism-based.
Assay [10] concerns Streptomyces. In words: Growth inhibition in Streptomyces 85E assessed as bald phenotype around disk at 20 ug/disk by hyphae formation inhibition assay. It is filed as functional. Particulars: read-out: IZ.
Assay [11] has as its system Streptomyces. In words: Growth inhibition in Streptomyces 85E assessed as bald phenotype around disk at 10 ug/disk by hyphae formation inhibition assay. It is filed as functional. The conditions noted are these: read-out: IZ.

Activity calls are given as the source filed them. No cut-off for these calls is given here.

Regarding `CO[C@@H]1[C@@H](OC(N)=O)[C@@H](O)[C@H](Oc2ccc3c(O)c(NC(=O)c4ccc5c(c4)CC(O)C(C)(C)O5)c(=O)oc3c2C)OC1(C)C` (some centres not stated) [COUMABIOCIN D], the “inhibition zone (IZ)” value in the assay on Streptomyces [1], in the assay with Streptomyces [3] and with Streptomyces [4] was “inactive” throughout. Also, the zone of inhibition at 20 µg/disc in the assay with Streptomyces [2] stood at 10 mm.

As to `CO[C@@H]1[C@@H](OC(N)=O)[C@@H](O)[C@H](Oc2ccc3c(O)c(NC(=O)c4ccc5c(c4)CC(C(C)C)O5)c(=O)oc3c2C)OC1(C)C` (some centres not stated) [COMABIOCIN B], the zone of inhibition at 20 µg/disc in the assay on Streptomyces [2] was 14 mm. In addition, the zone of inhibition at 10 µg/disc in the assay with Streptomyces [5] is 12 mm. In addition, the “inhibition zone (IZ)” value in the assay on Streptomyces [3] is “inactive”. In addition, in the assay with Streptomyces [6], the zone of inhibition at 5 µg/disc stood at 10 mm.

For `CO[C@@H]1[C@@H](OC(N)=O)[C@@H](O)[C@H](Oc2ccc3c(O)c(NC(=O)c4ccc(O)c(CC=C(C)C)c4)c(=O)oc3c2C)OC1(C)C` [NOVOBIOCIN], the zone of inhibition at 5 µg/disc with Streptomyces [7] was determined as 15 mm. Besides, in the assay with Streptomyces [2], the zone of inhibition at 20 µg/disc worked out at 20 mm. For the same compound, in the assay with Streptomyces [8], the zone of inhibition at 2.5 µg/disc came to 18 mm. Moreover, the zone of inhibition at 10 µg/disc with Streptomyces [5] was 18 mm.

Regarding `C=C(C)C(O)Cc1cc(C(=O)Nc2c(O)c3ccc(O)c(C)c3oc2=O)ccc1O` (configuration not stated), the “inhibition zone (IZ)” value in the assay with Streptomyces [1], in the assay on Streptomyces [3], in the assay with Streptomyces [9] and with Streptomyces [4] was “inactive” in each case.

Regarding `C=C(C)C(O)Cc1cc(C(=O)Nc2c(O)c3ccc(O[C@@H]4OC(C)(C)[C@H](OC)[C@@H](OC(N)=O)[C@H]4O)c(C)c3oc2=O)ccc1O` (some centres not stated) [COUMABIOCIN E], the “inhibition zone (IZ)” value with Streptomyces [1], in the assay with Streptomyces [3] and with Streptomyces [4] was “inactive” each time. Further, the zone of inhibition at 20 µg/disc with Streptomyces [2] came out at 11 mm.

As for `CO[C@@H]1[C@@H](OC(N)=O)[C@@H](O)[C@H](Oc2ccc3c(O)c(NC(=O)c4ccc5c(c4)CC(C(C)(C)O)O5)c(=O)oc3c2C)OC1(C)C` (some centres not stated) [COUMABIOCIN A], the “inhibition zone (IZ)” value in the assay with Streptomyces [1], in the assay with Streptomyces [3] and with Streptomyces [4] was “inactive” each time. Besides, the zone of inhibition at 20 µg/disc in the assay on Streptomyces [2] was determined as 13 mm.

Regarding `CO[C@@H]1[C@@H](OC(N)=O)[C@@H](O)[C@H](Oc2ccc3c(O)c(NC(=O)c4ccc5c(c4)CCC(C)(C)O5)c(=O)oc3c2C)OC1(C)C` [COUMABIOCIN C], the “inhibition zone (IZ)” value with Streptomyces [1] and with Streptomyces [3] was “inactive” each time. Further, the zone of inhibition at 20 µg/disc in the assay with Streptomyces [2] stood at 15 mm. The zone of inhibition at 10 µg/disc in the assay with Streptomyces [5] stood at 10 mm.

For `CO[C@@H]1[C@@H](O)[C@@H](OC(N)=O)[C@H](Oc2ccc3c(O)c(NC(=O)c4ccc(O)c(CC=C(C)C)c4)c(=O)oc3c2C)OC1(C)C` [ISONOVOBIOCIN], the “inhibition zone (IZ)” value with Streptomyces [1] and in the assay on Streptomyces [3] was “inactive” in each case. In addition, the zone of inhibition at 20 µg/disc in the assay with Streptomyces [10] is 10 mm. Further, in the assay with Streptomyces [11], the zone of inhibition at 10 µg/disc turned out to be 9 mm.

These data come from ChEMBL document CHEMBL1158576, “Coumabiocins A-F, aminocoumarins from an organic extract of Streptomyces sp. L-4-4” (2010).
